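Results reflect a 48-hour exposure of cells in 96-well plates to compound at five concentrations. GI50: concentration for 50% inhibition of growth. The concentration for full growth arrest is given as TGI.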
Tests used:
Assay in all cases: inhibition of tumour cell growth, NCI panel, 48 h
SK-MEL-2 melanoma = tested on: SK-MEL-2 melanoma
OVCAR-3 ovarian = tested on: OVCAR-3 ovarian
CAKI-1 renal = tested on: CAKI-1 renal
COLO 205 colon = tested on: COLO 205 colon
DU-145 prostate = tested on: DU-145 prostate
RXF 393 renal = tested on: RXF 393 renal
T-47D breast = tested on: T-47D breast
NCI-H460 lung = tested on: NCI-H460 lung
SNB-75 CNS = tested on: SNB-75 CNS
A498 renal = tested on: A498 renal
MDA-MB-435 = tested on: MDA-MB-435
NCI-H226 lung = tested on: NCI-H226 lung
HCT-15 colon = tested on: HCT-15 colon
SF-539 CNS = tested on: SF-539 CNS
CCRF-CEM leukemia = tested on: CCRF-CEM leukemia
OVCAR-5 ovarian = tested on: OVCAR-5 ovarian
KM12 colon = tested on: KM12 colon
NCI-H23 lung = tested on: NCI-H23 lung
HOP-62 NSCLC = tested on: HOP-62 NSCLC
NCI-H522 lung = tested on: NCI-H522 lung
MOLT-4 leukemia = tested on: MOLT-4 leukemia
SK-MEL-28 melanoma = tested on: SK-MEL-28 melanoma
HS 578T breast = tested on: HS 578T breast
SW-620 colon = tested on: SW-620 colon
HT29 colon = tested on: HT29 colon
SK-OV-3 ovarian = tested on: SK-OV-3 ovarian
A549 NSCLC = tested on: A549 NSCLC
SN12C renal = tested on: SN12C renal
UO-31 renal = tested on: UO-31 renal
PC-3 prostate = tested on: PC-3 prostate
TK-10 renal = tested on: TK-10 renal
OVCAR-4 ovarian = tested on: OVCAR-4 ovarian
K-562 leukemia = tested on: K-562 leukemia
OVCAR-8 ovarian = tested on: OVCAR-8 ovarian
SF-268 CNS = tested on: SF-268 CNS
UACC-62 melanoma = tested on: UACC-62 melanoma
U251 CNS = tested on: U251 CNS
SK-MEL-5 melanoma = tested on: SK-MEL-5 melanoma
ACHN renal = tested on: ACHN renal
RPMI-8226 leukemia = tested on: RPMI-8226 leukemia
MCF7 breast = tested on: MCF7 breast
IGROV1 ovarian = tested on: IGROV1 ovarian
786-0 renal = tested on: 786-0 renal
HCC-2998 colon = tested on: HCC-2998 colon
LOX IMVI melanoma = tested on: LOX IMVI melanoma
HOP-92 NSCLC = tested on: HOP-92 NSCLC
MALME-3M melanoma = tested on: MALME-3M melanoma
SNB-19 CNS = tested on: SNB-19 CNS
NCI/ADR-RES ovarian = tested on: NCI/ADR-RES ovarian
MDA-MB-231 breast = tested on: MDA-MB-231 breast
M14 melanoma = tested on: M14 melanoma
HCT-116 colon = tested on: HCT-116 colon
UACC-257 melanoma = tested on: UACC-257 melanoma
BT-549 breast = tested on: BT-549 breast
HL-60(TB) leukemia = tested on: HL-60(TB) leukemia

`O=c1c2ccc3cccc4c(=O)c5ccc6cccc1c6c5-c2c34` showed a GI50 (SK-MEL-2 melanoma) of over 50 µM, a TGI (SK-MEL-2 melanoma) of over 50 µM and a GI50 (OVCAR-3 ovarian) of over 50 µM. The TGI (OVCAR-3 ovarian) was over 50 µM, the GI50 (CAKI-1 renal) was over 50 µM and the TGI (CAKI-1 renal) was over 50 µM. It also gave a GI50 (COLO 205 colon) of over 50 µM, a TGI (COLO 205 colon) of over 50 µM and a GI50 (DU-145 prostate) of over 50 µM. For the same compound, the TGI (DU-145 prostate) was over 50 µM, the GI50 (RXF 393 renal) was over 50 µM and the TGI (RXF 393 renal) was over 50 µM. For the same compound, the GI50 (T-47D breast) was over 50 µM, the TGI (T-47D breast) was over 50 µM and the GI50 (NCI-H460 lung) was over 50 µM. The TGI (NCI-H460 lung) was over 50 µM, the GI50 (SNB-75 CNS) was over 50 µM and the TGI (SNB-75 CNS) was over 50 µM. The GI50 (A498 renal) was over 50 µM, the TGI (A498 renal) was over 50 µM and the GI50 (MDA-MB-435) was over 50 µM. The TGI (MDA-MB-435) was over 50 µM, the GI50 (NCI-H226 lung) was over 50 µM and the TGI (NCI-H226 lung) was over 50 µM. The GI50 (HCT-15 colon) was over 50 µM, the TGI (HCT-15 colon) was over 50 µM and the GI50 (SF-539 CNS) was over 50 µM. The TGI (SF-539 CNS) was over 50 µM, the GI50 (CCRF-CEM leukemia) was over 50 µM and the TGI (CCRF-CEM leukemia) was over 50 µM. For the same compound, the GI50 (OVCAR-5 ovarian) was over 50 µM, the TGI (OVCAR-5 ovarian) was over 50 µM and the GI50 (KM12 colon) was over 50 µM. The TGI (KM12 colon) was over 50 µM, the GI50 (NCI-H23 lung) was over 50 µM and the TGI (NCI-H23 lung) was over 50 µM. It also gave a GI50 (HOP-62 NSCLC) of over 50 µM, a TGI (HOP-62 NSCLC) of over 50 µM and a GI50 (NCI-H522 lung) of over 50 µM. The TGI (NCI-H522 lung) was over 50 µM, the GI50 (MOLT-4 leukemia) was over 50 µM and the TGI (MOLT-4 leukemia) was over 50 µM. For the same compound, the GI50 (SK-MEL-28 melanoma) was over 50 µM, the TGI (SK-MEL-28 melanoma) was over 50 µM and the GI50 (HS 578T breast) was over 50 µM. The TGI (HS 578T breast) was over 50 µM, the GI50 (SW-620 colon) was over 50 µM and the TGI (SW-620 colon) was over 50 µM. The GI50 (HT29 colon) was over 50 µM, the TGI (HT29 colon) was over 50 µM and the GI50 (SK-OV-3 ovarian) was over 50 µM. For the same compound, the TGI (SK-OV-3 ovarian) was over 50 µM, the GI50 (A549 NSCLC) was over 50 µM and the TGI (A549 NSCLC) was over 50 µM. The GI50 (SN12C renal) was over 50 µM, the TGI (SN12C renal) was over 50 µM and the GI50 (UO-31 renal) was over 50 µM. It also gave a TGI (UO-31 renal) of over 50 µM, a GI50 (PC-3 prostate) of over 50 µM and a TGI (PC-3 prostate) of over 50 µM. It also gave a GI50 (TK-10 renal) of over 50 µM, a TGI (TK-10 renal) of over 50 µM and a GI50 (OVCAR-4 ovarian) of over 50 µM. For the same compound, the TGI (OVCAR-4 ovarian) was over 50 µM, the GI50 (K-562 leukemia) was over 50 µM and the TGI (K-562 leukemia) was over 50 µM. The GI50 (OVCAR-8 ovarian) was over 50 µM, the TGI (OVCAR-8 ovarian) was over 50 µM and the GI50 (SF-268 CNS) was over 50 µM. It also gave a TGI (SF-268 CNS) of over 50 µM, a GI50 (UACC-62 melanoma) of over 50 µM and a TGI (UACC-62 melanoma) of over 50 µM. For the same compound, the GI50 (U251 CNS) was over 50 µM, the TGI (U251 CNS) was over 50 µM and the GI50 (SK-MEL-5 melanoma) was over 50 µM. For the same compound, the TGI (SK-MEL-5 melanoma) was over 50 µM, the GI50 (ACHN renal) was over 50 µM and the TGI (ACHN renal) was over 50 µM. The GI50 (RPMI-8226 leukemia) was over 50 µM, the TGI (RPMI-8226 leukemia) was over 50 µM and the GI50 (MCF7 breast) was over 50 µM. For the same compound, the TGI (MCF7 breast) was over 50 µM, the GI50 (IGROV1 ovarian) was over 50 µM and the TGI (IGROV1 ovarian) was over 50 µM. The GI50 (786-0 renal) was over 50 µM, the TGI (786-0 renal) was over 50 µM and the GI50 (HCC-2998 colon) was over 50 µM. It also gave a TGI (HCC-2998 colon) of over 50 µM, a GI50 (LOX IMVI melanoma) of over 50 µM and a TGI (LOX IMVI melanoma) of over 50 µM. For the same compound, the GI50 (HOP-92 NSCLC) was over 50 µM, the TGI (HOP-92 NSCLC) was over 50 µM and the GI50 (MALME-3M melanoma) was over 50 µM. For the same compound, the TGI (MALME-3M melanoma) was over 50 µM, the GI50 (SNB-19 CNS) was over 50 µM and the TGI (SNB-19 CNS) was over 50 µM. The GI50 (NCI/ADR-RES ovarian) was over 50 µM, the TGI (NCI/ADR-RES ovarian) was over 50 µM and the GI50 (MDA-MB-231 breast) was over 50 µM. For the same compound, the TGI (MDA-MB-231 breast) was over 50 µM, the GI50 (M14 melanoma) was over 50 µM and the TGI (M14 melanoma) was over 50 µM. The GI50 (HCT-116 colon) was over 50 µM, the TGI (HCT-116 colon) was over 50 µM and the GI50 (UACC-257 melanoma) was over 50 µM. It also gave a TGI (UACC-257 melanoma) of over 50 µM, a GI50 (BT-549 breast) of over 50 µM and a TGI (BT-549 breast) of over 50 µM. The GI50 (HL-60(TB) leukemia) was over 50 µM and the TGI (HL-60(TB) leukemia) was over 50 µM.
